Experimental data from patent publication US20190119332A1, “METHODS TO PURIFY AVIDIN-LIKE PROTEINS AND FUSION PROTEINS THEREOF” (THE CHILDREN'S MEDICAL CENTER CORPORATION, priority 2016, published 2019).

Tests used:
rhizavidin [1] = assay: binding of rhizavidin to ligands assessed for affinity chromatography; set-up: species or system Rhizobium etli; settings: for binding to rhizavidin: ligand assessed for affinity chromatography
rhizavidin [2] = assay: affinity column purification of rhizavidin with immobilized ligand; set-up: species or system Rhizobium etli; settings: data not shown
Description: The following steps can be followed to prepare a LA-matrix for use in the methods as disclosed herein: • i. Resuspend CARBOXYLINK™ Coupling Resin (Life technologies, 20266) and aliquot 1 ml of suspended resin into an empty column, e.g., a bio-rad Econo-Pac Chromatography Column, allow resin to settle. Wash the resin with approx.20 ml of water and add 10 ml of PBS (×1) to equilibrate resin. • ii. Prepare a 100 mg/ml solution of Sulfo-NHS by dissolving 50 mg of Sulfo-NHS (N-hydroxysulfosuccinimide) in 0.5 ml of 0.1M MES buffer. • iii. Prepare a Sulfo-NHS/LA mixture by adding 0.25 ml of ethanol and 0.25 ml of 50 mg/ml LA stock solution (12.5 mg of LA) to 0.5 ml of Sulfo-NHS (100 mg/ml). • iv. To cross link the LA to the resin, dissolve 25 mg of EDC in 0.75 ml of coupling buffer and immediately add to Sulfo-NHS/LA mixture. Incubate the EDC/Sulfo-NHS/LA mixture with rotation for 30 min RT. Adjust the pH of the EDC/Sulfo-NHS/LA mixture to pH 7.0 by adding 1M Na2HPO4 (pH11) (approx. 0.5 ml of 1M Na2HPO4) • v. Resuspend the equilibrated CARBOXYLINK™ Coupling Resin with EDC/Sulfo-NHS/LA mixture and transfer everything to a 5 ml tube, incubate with rotation overnight RT. • vi. Transfer resin into an empty column, allow LA resin/LA matrix to settle. Wash resin with the following reagents in the following order; (i) 20 ml of wash buffer, (ii) 20 ml of H2O, (iii) Wash resin comprising 5 ml of 20% ethanol. Store LA resin/LA matrix in 20% ethanol until use.
The following steps can be followed in the methods as disclosed herein to purify a biotin-binding protein, e.g., rhizavidin or a rhiavidin fusion protein using a LA-matrix from a bacterial suspension expressing the rhizavidin or a rhiavidin fusion protein: • v. Collect E. coli culture by centrifugation, discard supernatant, and resuspend pelleted cells with a lysis buffer (20 mM Tris, 1M NaCl, pH8.0) containing DNase, proteinase inhibitors and 10 mM MgCl2. […] Transfer resin into an empty column after incubation and wash the LA resin with wash buffer (50% ethanol, 20 mM Tris, 1M NaCl) until no protein is detected in flow through • ix. […]

streptavidin = streptavidin (Streptomyces avidinii, UniProt P22629); settings: cited from earlier work
Chain of streptavidin (P22629 25-183): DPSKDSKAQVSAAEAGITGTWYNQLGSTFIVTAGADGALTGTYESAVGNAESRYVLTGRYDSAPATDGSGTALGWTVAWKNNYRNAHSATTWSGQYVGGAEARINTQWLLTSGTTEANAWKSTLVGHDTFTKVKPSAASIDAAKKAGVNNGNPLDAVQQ

Structure (SMILES)	binding to rhizavidin (rhizavidin [1])	effectiveness of column comprising the ligand at purifying rhizavidin (rhizavidin [2])	binding to streptavidin (streptavidin)	affinity of binding to rhizavidin (rhizavidin [1])	affinity of rhizavidin for lipoic acid compared with polyhistadine tag for nickel (rhizavidin [1])
O=C(O)c1ccccc1N=Nc1ccc(O)cc1 [HABA, hydrooxyazobenzene-benzoic acid]	did not bind	not effective	bind with high affinity		
Cc1cc(N=Nc2ccccc2C(=O)O)cc(C)c1O [dimethyl-HABA]	did not bind	not effective	bind with high affinity		
O=C(O)CCCCC1CCSS1 (stereo not drawn) [lipoic acid, 1,2-dithione-3-pentanoic acid]		effective		micromolar affinity	approximately the same as histadine
